Laboratory results from ChEMBL document CHEMBL1201862, “PubChem BioAssay data set” (2004).
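Compound exposure: 48 hours, 5 concentrations, 96-well plates. Here, GI50 denotes the concentration required for 50% inhibition of growth.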 The source made the active and inactive calls. Cut-off read from the data, not from the text of the source: active = GI50 up to about 1.1 µM and inactive = higher.

Tests used:
Assay in all cases: DTP human tumour cell line panel, 48 h
HOP-18 = system: HOP-18
DLD-1 = system: DLD-1
LXFL 529 = system: LXFL 529
RXF 631 = system: RXF 631
KM-20L2 = system: KM-20L2
BT-549 = system: BT-549
T47D = system: T47D
Hs-578T = system: Hs-578T
MDA-N = system: MDA-N

Structure (SMILES)	GI50 (HOP-18)	GI50 (DLD-1)	GI50 (LXFL 529)	GI50 (RXF 631)	GI50 (KM-20L2)	GI50 (BT-549)	GI50 (T47D)	GI50 (Hs-578T)	GI50 (MDA-N)
COc1c(Sc2ccccc2)cc(Sc2ccccc2)c2cccnc12	0.0263 µM (active)	27.9 µM (inactive)	30.8 µM (inactive)	27.9 µM (inactive)	21.2 µM (inactive)	–	–	–	–
O=C1C2Nc3ccccc3SC2C(=O)N1c1cccc([N+](=O)[O-])c1 (stereo unspecified)	–	48.9 µM (inactive)	74.3 µM (inactive)	> 100 µM (inactive)	> 20.5 µM (inactive)	–	–	–	–
O=S(=O)(O)c1cc(/N=N/c2cc(S(=O)(=O)O)c3ccccc3c2O)ccc1/C=C/c1ccc(/N=N/c2cc(S(=O)(=O)O)c3ccccc3c2O)cc1S(=O)(=O)O	> 100 µM (inactive)	> 100 µM (inactive)	> 1000 µM (inactive)	–	> 100 µM (inactive)	284 µM (inactive)	497 µM (inactive)	499 µM (inactive)	151 µM (inactive)
O=C1CCCC/C1=C1\C(=O)Nc2cc(F)ccc21	> 100 µM (inactive)	> 100 µM (inactive)	> 100 µM (inactive)	–	> 100 µM (inactive)	–	–	–	–
COc1ccc2c(c1)CC[C@@H]1C2CC[C@]2(C)C(=N\O)/C(=N/O)CC12 (stereo partly specified)	15.7 µM (inactive)	13.1 µM (inactive)	12.8 µM (inactive)	–	6.21 µM (inactive)	–	–	–	–
Nc1ccc(C(=O)/C=C/c2ccccc2O)cc1	–	> 100 µM (inactive)	> 100 µM (inactive)	> 100 µM (inactive)	> 100 µM (inactive)	–	–	–	–
CC(=O)CC(=O)ON(C)C(C)=O	–	> 100 µM (inactive)	> 100 µM (inactive)	–	> 100 µM (inactive)	–	–	–	–
[O-][n+]1c(-c2ccccc2)c2nc3ccccc3nc2c2ccccc21	–	> 100 µM (inactive)	7.78 µM (inactive)	> 100 µM (inactive)	> 100 µM (inactive)	–	–	–	–
O=C(O)c1ccc(O)c(/N=N/c2cc(S(=O)(=O)O)c3ccccc3c2O)c1	–	> 100 µM (inactive)	–	> 100 µM (inactive)	> 100 µM (inactive)	–	–	–	–
Clc1ccccc1C1=NN(c2ccccc2)C2c3cc(Br)ccc3OCC12 (stereo unspecified)	> 100 µM (inactive)	> 100 µM (inactive)	> 100 µM (inactive)	–	> 100 µM (inactive)	–	–	–	–
CCOc1ccc(NC(=O)CC2SC(Nc3ccc(C)cc3)=NC2=O)cc1 (stereo unspecified)	–	> 100 µM (inactive)	> 100 µM (inactive)	> 100 µM (inactive)	> 100 µM (inactive)	–	–	–	–
CN(C)CC/[N+]([O-])=C(/c1ccccc1)C12CC3CC(CC(C3)C1)C2	20.9 µM (inactive)	16.1 µM (inactive)	24 µM (inactive)	14 µM (inactive)	11.5 µM (inactive)	–	–	–	–
C=C(C(=C)N1N=NC2C3CCC(C3)C21)N1N=NC2C3CCC(C3)C21 (stereo unspecified)	> 100 µM (inactive)	> 100 µM (inactive)	> 100 µM (inactive)	> 100 µM (inactive)	–	–	–	–	–
O=C1/C(=C/c2ccccc2)CN(C(=O)OCC(Cl)(Cl)Cl)C/C1=C\c1ccccc1	3.57 µM (inactive)	1.91 µM (inactive)	1.78 µM (inactive)	–	2.44 µM (inactive)	–	–	–	–
O=C1c2cccc(O)c2C(=O)c2c(O)cccc21 [DANTHRON]	–	45 µM (inactive)	> 100 µM (inactive)	–	99.1 µM (inactive)	–	–	–	–
C/C(CC(=O)Nc1ccc(C)c(C)c1)=N\NC(N)=S	–	> 100 µM (inactive)	> 100 µM (inactive)	> 100 µM (inactive)	> 100 µM (inactive)	–	–	–	–
CNS(=O)(=O)NN(C)S(=O)(=O)c1ccc2ccccc2c1	–	> 100 µM (inactive)	> 100 µM (inactive)	> 100 µM (inactive)	> 100 µM (inactive)	–	–	–	–
Cc1[nH]c2ccccc2c1C1Cc2ccccc2N1C(=O)/C=C/C=C/c1ccccc1 (stereo unspecified)	–	> 100 µM (inactive)	> 100 µM (inactive)	–	> 100 µM (inactive)	–	–	–	–
Cc1ccc(S(=O)(=O)c2ccccc2[N+](=O)[O-])cc1	–	> 100 µM (inactive)	> 100 µM (inactive)	49.1 µM (inactive)	> 100 µM (inactive)	–	–	–	–
CCCN1CN(C(C(=O)N[C@@H]2C(=O)N3C2SC(C)(C)C3C(=O)O)c2ccc(O)cc2)CSC1=S (stereo partly specified)	> 100 µM (inactive)	52.8 µM (inactive)	61.4 µM (inactive)	–	> 100 µM (inactive)	–	–	–	–

Structure (SMILES)	GI50 (HOP-18)	GI50 (DLD-1)	GI50 (LXFL 529)	GI50 (RXF 631)	GI50 (KM-20L2)	GI50 (BT-549)	GI50 (T47D)	GI50 (Hs-578T)	GI50 (MDA-N)
O=C1C(Nc2ccc(S(=O)(=O)Nc3cnc4ccccc4n3)cc2)=C/C(=N\c2ccc(S(=O)(=O)Nc3cnc4ccccc4n3)cc2)c2ccccc21	13.7 µM (inactive)	17.9 µM (inactive)	15.2 µM (inactive)	–	17.7 µM (inactive)	–	–	37.2 µM (inactive)	18.8 µM (inactive)
COc1ccc(CN2CC(C)(C)C2=O)c(OC)c1	> 100 µM (inactive)	–	–	> 100 µM (inactive)	> 100 µM (inactive)	–	–	–	–
CC(CC(=O)Nc1ccc(NC(=O)CC(C)/N=N\C(N)=O)cc1)/N=N\C(N)=O (stereo unspecified)	> 100 µM (inactive)	34.5 µM (inactive)	> 100 µM (inactive)	–	> 100 µM (inactive)	–	–	–	–
O=C1OC(O)C(Oc2ccc(Cl)cc2)=C1Cl (stereo unspecified)	–	> 100 µM (inactive)	> 100 µM (inactive)	> 100 µM (inactive)	> 100 µM (inactive)	–	–	–	–
CCOC(=O)c1cn2c([nH]c3ccccc32)c(C#N)c1=O	> 100 µM (inactive)	99.5 µM (inactive)	> 100 µM (inactive)	> 100 µM (inactive)	> 100 µM (inactive)	–	–	–	–
COc1ccc2cc3nc(O)cc(O)c3cc2c1OC	> 100 µM (inactive)	–	> 100 µM (inactive)	> 100 µM (inactive)	> 100 µM (inactive)	–	–	–	–
O=CC(NC(=O)N(CCCl)N=O)C(O)C(O)C(O)CO (stereo unspecified)	> 1250 µM (inactive)	> 1250 µM (inactive)	–	–	> 1250 µM (inactive)	499 µM (inactive)	679 µM (inactive)	> 955 µM (inactive)	312 µM (inactive)
c1ccc(Cc2cccc3cc(-c4ccc(-c5ccccc5)cc4)[nH]c23)cc1	–	–	–	–	–	> 100 µM (inactive)	> 100 µM (inactive)	14.7 µM (inactive)	> 100 µM (inactive)
COc1ccc(C2=NNC(=O)OC2c2ccccc2)cc1 (stereo unspecified)	57.9 µM (inactive)	–	70 µM (inactive)	> 100 µM (inactive)	41.2 µM (inactive)	–	–	–	–
OC(c1cc2ccc(C(F)(F)F)cc2c2cc(C(F)(F)F)ccc12)C1CCCCN1 (stereo unspecified)	–	–	–	–	–	1.92 µM (inactive)	1.87 µM (inactive)	1.9 µM (inactive)	1.75 µM (inactive)
Cc1cc(N(CCC#N)CCC#N)ccc1/C=C(\NC(=O)/C=C/c1ccccc1)C(=O)N=[N+]=[N-]	–	> 100 µM (inactive)	> 100 µM (inactive)	–	> 100 µM (inactive)	–	–	–	–
COc1ccccc1C(=O)N(Cc1ccccc1)c1ccc(Cl)c(C(=O)OC(C)C)c1	14 µM (inactive)	18.1 µM (inactive)	23 µM (inactive)	17 µM (inactive)	30.3 µM (inactive)	34.4 µM (inactive)	5.52 µM (inactive)	61.1 µM (inactive)	38.2 µM (inactive)
C[C@]12CC[C@@H]3c4ccc(O)cc4CC[C@H]3[C@@H]1CC[C@@H]2OC(=O)CCc1ccccc1	–	–	–	–	–	18.5 µM (inactive)	17.7 µM (inactive)	5.14 µM (inactive)	7.46 µM (inactive)
COC1CC(n2cnc3c(N)ncnc32)OC1CO (stereo unspecified)	–	> 100 µM (inactive)	> 100 µM (inactive)	–	> 100 µM (inactive)	–	–	–	–
Fc1ccc2c(c1)SC1Oc3ccccc3-c3c1c-2nn3-c1ccccc1 (stereo unspecified)	27 µM (inactive)	> 100 µM (inactive)	> 100 µM (inactive)	7.69 µM (inactive)	> 100 µM (inactive)	–	–	–	–
COc1ccc2c(O)c(S(=O)(=O)c3ccc(C)cc3)c(=O)oc2c1OC	–	–	–	–	–	> 100 µM (inactive)	> 100 µM (inactive)	> 100 µM (inactive)	> 100 µM (inactive)
CCCC(=O)N[C@@H](Cc1cc(I)c(O)c(I)c1)C(=O)NCCCNCCCCNCCCNC(=O)[C@@H](N)CCCN=C(N)N	–	–	78 µM (inactive)	–	> 100 µM (inactive)	–	–	–	–
CC(=O)OCC1(C)C(O)CCC2(C)C1CCC1CC3CC12CCC3(O)CO (stereo unspecified)	–	–	–	–	–	> 86.3 µM (inactive)	> 100 µM (inactive)	> 53.6 µM (inactive)	> 100 µM (inactive)
COC1OC(COC(C)=O)C(OC(C)=O)C(OC(C)=O)C1NC(=O)N(CCCl)N=O (stereo unspecified)	> 100 µM (inactive)	> 100 µM (inactive)	> 100 µM (inactive)	> 100 µM (inactive)	> 100 µM (inactive)	–	–	–	–
